{
  "source": "patent US7138361B2",
  "about": "“Herbicidal heterocycles” (E. I. du Pont de Nemours and Company, priority 2000, dated 2006)",
  "experiment_in_all_cases": "Test C preemergence",
  "assay_type_in_all_cases": "in vivo",
  "key": {"[1]": {"system": "Nightshade"}, "[2]": {"system": "Sunflower"}, "[3]": {"system": "Surinam grass (Brachiaria decumbens)", "how_it_was_run": "(§1)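 Each compound was dissolved in a non-phytotoxic solvent system containing a surfactant and sprayed either on freshly planted seeds (preemergence) or on young plants, 2 to 18 cm high (postemergence). Ratings after 12 to 14 greenhouse days ran from 0, no effect, to 100, complete control.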"}, "[4]": {"system": "bermudagrass (Cynodon dactylon)", "how_it_was_run": "as §1"}, "[5]": {"system": "cocklebur (Xanthium strumarium)", "how_it_was_run": "as §1"}, "[6]": {"system": "common ragweed (Ambrosia elatior)", "how_it_was_run": "as §1"}, "[7]": {"system": "corn (Zea mays)", "how_it_was_run": "as §1"}, "[8]": {"system": "crabgrass (Digitaria sanguinalis)", "how_it_was_run": "as §1"}, "[9]": {"system": "giant foxtail (Setaria faberii)", "how_it_was_run": "as §1"}, "[10]": {"system": "goosegrass (Eleusine indica)", "how_it_was_run": "as §1"}, "[11]": {"system": "johnsongrass (Sorghum halepense)", "how_it_was_run": "as §1"}, "[12]": {"system": "kochia (Kochia scoparia)", "how_it_was_run": "as §1"}, "[13]": {"system": "lambsquarters (Chenopodium album)", "how_it_was_run": "as §1"}, "[14]": {"system": "morningglory (Ipomoea hederacea)", "how_it_was_run": "as §1"}, "[15]": {"system": "pigweed (Amaranthus retroflexus)", "how_it_was_run": "as §1"}, "[16]": {"system": "soybean (Glycine max)", "how_it_was_run": "as §1"}, "[17]": {"system": "velvetleaf (Abutilon theophrasti)", "how_it_was_run": "as §1"}, "[18]": {"system": "woolly cupgrass (Eriochloa villosa)", "how_it_was_run": "as §1"}, "[19]": {"system": "yellow nutsedge (Cyperus esculentus)", "how_it_was_run": "as §1"}, "[20]": {"system": "Sunflower", "conditions": "Rate 125 g/ha, scale 0 to 100, 0 no effect, 100 complete control"}, "[21]": {"conditions": "Rate 62 g/ha, scale 0 to 100, 0 no effect, 100 complete control"}, "[22]": {"conditions": "Preemergence, Rate 500 g/ha, scale 0 to 100"}, "[23]": {"conditions": "preemergence, Rate 31 g/ha, scale 0 to 100"}, "[24]": {"conditions": "preemergence, Rate 250 g/ha, visual evaluation after 12 to 14 days"}, "[25]": {"conditions": "preemergence, Rate 125 g/ha, scale 0 to 100, 0 no effect, 100 complete control"}},
  "data": [
    {"compound": "CCC(CC)c1ccn(C2SCN(c3cccc(C(F)(F)F)c3)C2=O)n1", "note": "(centres unmarked) [Compound 25]", "values": [
      {"measurement": "Plant response rating, Nightshade", "setting": "[1]; Rate 31 g/ha, scale 0 to 100", "value": 20},
      {"measurement": "Plant response rating, Nightshade", "setting": "[1]; [21]", "value": 100},
      {"measurement": "Plant response rating, Nightshade", "setting": "[1]; Rate 125 g/ha, scale 0 to 100, 0 no effect, 100 complete control", "value": 100},
      {"measurement": "Plant response rating, Nightshade", "setting": "[1]; Rate 500 g/ha, scale 0 to 100", "value": 100},
      {"measurement": "Plant response rating, Sunflower", "setting": "[2]; [21]", "value": 30},
      {"measurement": "Plant response rating, Sunflower", "setting": "[2]; Rate 500 g/ha, scale 0 to 100", "value": 70},
      {"measurement": "Plant response rating, Surinam grass", "setting": "[3]; [22]", "value": 80},
      {"measurement": "Plant response rating, Surinam grass", "setting": "[3]; [21]", "value": 40},
      {"measurement": "Plant response rating, Surinam grass", "setting": "[3]; [23]", "value": 20},
      {"measurement": "Plant response rating (0 to 100), Surinam grass", "setting": "[3]; [24]", "value": 80},
      {"measurement": "Plant response rating, Surinam grass", "setting": "[3]; [25]", "value": 80},
      {"measurement": "Plant response rating, Bermudagrass", "setting": "[4]; [22]", "value": 100},
      {"measurement": "Plant response rating, Bermudagrass", "setting": "[4]; [21]", "value": 100},
      {"measurement": "Plant response rating, Bermudagrass", "setting": "[4]; [23]", "value": 90},
      {"measurement": "Plant response rating (0 to 100 where 0 is no effect and 100 is complete control), Bermudagrass", "setting": "[4]; [24]", "value": 100},
      {"measurement": "Plant response rating, Bermudagrass", "setting": "[4]; [25]", "value": 100},
      {"measurement": "Plant response rating, Cocklebur", "setting": "[5]; [22]", "value": 70},
      {"measurement": "Plant response rating, Cocklebur", "setting": "[5]; [21]", "value": 0},
      {"measurement": "Plant response rating, Cocklebur", "setting": "[5]; [23]", "value": 0},
      {"measurement": "Plant response rating (0 to 100), Cocklebur", "setting": "[5]; [24]", "value": 100},
      {"measurement": "Plant response rating, Cocklebur", "setting": "[5]; [25]", "value": 0},
      {"measurement": "Plant response rating, Ragweed, Common", "setting": "[6]; [22]", "value": 100},
      {"measurement": "Plant response rating, Ragweed, Common", "setting": "[6]; [21]", "value": 70},
      {"measurement": "Plant response rating, Ragweed, Common", "setting": "[6]; [23]", "value": 0},
      {"measurement": "Plant response rating (0 to 100), Ragweed, Common", "setting": "[6]; [24]", "value": 70},
      {"measurement": "Plant response rating, Ragweed, Common", "setting": "[6]; [25]", "value": 70},
      {"measurement": "Plant response rating, Corn", "setting": "[7]; [22]", "value": 50},
      {"measurement": "Plant response rating, Corn", "setting": "[7]; [21]", "value": 0},
      {"measurement": "Plant response rating, Corn", "setting": "[7]; [23]", "value": 0},
      {"measurement": "Plant response rating (0 to 100), Corn", "setting": "[7]; [24]", "value": 20},
      {"measurement": "Plant response rating, Corn", "setting": "[7]; [25]", "value": 20},
      {"measurement": "Plant response rating, Crabgrass", "setting": "[8]; [22]", "value": 100},
      {"measurement": "Plant response rating, Crabgrass", "setting": "[8]; [21]", "value": 100},
      {"measurement": "Plant response rating, Crabgrass", "setting": "[8]; [23]", "value": 100},
      {"measurement": "Plant response rating (0 to 100), Crabgrass", "setting": "[8]; [24]", "value": 100},
      {"measurement": "Plant response rating, Crabgrass", "setting": "[8]; [25]", "value": 100},
      {"measurement": "Plant response rating, Foxtail, Giant", "setting": "[9]; [22]", "value": 90},
      {"measurement": "Plant response rating, Foxtail, Giant", "setting": "[9]; [21]", "value": 90},
      {"measurement": "Plant response rating, Foxtail, Giant", "setting": "[9]; [23]", "value": 20},
      {"measurement": "Plant response rating (0 to 100), Foxtail, Giant", "setting": "[9]; [24]", "value": 100},
      {"measurement": "Plant response rating, Foxtail, Giant", "setting": "[9]; [25]", "value": 70},
      {"measurement": "Plant response rating, Goosegrass", "setting": "[10]; [22]", "value": 100},
      {"measurement": "Plant response rating, Goosegrass", "setting": "[10]; [21]", "value": 100},
      {"measurement": "Plant response rating, Goosegrass", "setting": "[10]; [23]", "value": 100},
      {"measurement": "Plant response rating (0 to 100), Goosegrass", "setting": "[10]; [24]", "value": 100},
      {"measurement": "Plant response rating, Goosegrass", "setting": "[10]; [25]", "value": 100},
      {"measurement": "Plant response rating, Johnsongrass", "setting": "[11]; [22]", "value": 100},
      {"measurement": "Plant response rating, Johnsongrass", "setting": "[11]; [21]", "value": 70},
      {"measurement": "Plant response rating, Johnsongrass", "setting": "[11]; [23]", "value": 30},
      {"measurement": "Plant response rating (0 to 100), Johnsongrass", "setting": "[11]; [24]", "value": 90},
      {"measurement": "Plant response rating, Johnsongrass", "setting": "[11]; [25]", "value": 90},
      {"measurement": "Plant response rating, Kochia", "setting": "[12]; [22]", "value": 100},
      {"measurement": "Plant response rating, Kochia", "setting": "[12]; [21]", "value": 50},
      {"measurement": "Plant response rating, Kochia", "setting": "[12]; [23]", "value": 60},
      {"measurement": "Plant response rating (0 to 100), Kochia", "setting": "[12]; [24]", "value": 100},
      {"measurement": "Plant response rating, Kochia", "setting": "[12]; [25]", "value": 100},
      {"measurement": "Plant response rating, Lambsquarters", "setting": "[13]; [22]", "value": 100},
      {"measurement": "Plant response rating, Lambsquarters", "setting": "[13]; [21]", "value": 100},
      {"measurement": "Plant response rating, Lambsquarters", "setting": "[13]; [23]", "value": 100},
      {"measurement": "Plant response rating (0 to 100), Lambsquarters", "setting": "[13]; [24]", "value": 100},
      {"measurement": "Plant response rating, Lambsquarters", "setting": "[13]; [25]", "value": 100},
      {"measurement": "Plant response rating, Morningglory", "setting": "[14]; [22]", "value": 90},
      {"measurement": "Plant response rating, Morningglory", "setting": "[14]; [21]", "value": 20},
      {"measurement": "Plant response rating, Morningglory", "setting": "[14]; [23]", "value": 0},
      {"measurement": "Plant response rating (0 to 100), Morningglory", "setting": "[14]; [24]", "value": 100},
      {"measurement": "Plant response rating, Morningglory", "setting": "[14]; [25]", "value": 30},
      {"measurement": "Plant response rating, Pigweed", "setting": "[15]; [22]", "value": 90},
      {"measurement": "Plant response rating, Pigweed", "setting": "[15]; [21]", "value": 60},
      {"measurement": "Plant response rating, Pigweed", "setting": "[15]; [23]", "value": 100},
      {"measurement": "Plant response rating (0 to 100), Pigweed", "setting": "[15]; [24]", "value": 90},
      {"measurement": "Plant response rating, Pigweed", "setting": "[15]; [25]", "value": 100},
      {"measurement": "Plant response rating, Soybean", "setting": "[16]; [22]", "value": 60},
      {"measurement": "Plant response rating, Soybean", "setting": "[16]; [21]", "value": 0},
      {"measurement": "Plant response rating, Soybean", "setting": "[16]; [23]", "value": 20},
      {"measurement": "Plant response rating (0 to 100), Soybean", "setting": "[16]; [24]", "value": 50},
      {"measurement": "Plant response rating, Soybean", "setting": "[16]; [25]", "value": 30},
      {"measurement": "Plant response rating, Velvetleaf", "setting": "[17]; [22]", "value": 20},
      {"measurement": "Plant response rating, Velvetleaf", "setting": "[17]; [21]", "value": 30},
      {"measurement": "Plant response rating, Velvetleaf", "setting": "[17]; [23]", "value": 0},
      {"measurement": "Plant response rating (0 to 100), Velvetleaf", "setting": "[17]; [24]", "value": 70},
      {"measurement": "Plant response rating, Velvetleaf", "setting": "[17]; [25]", "value": 0},
      {"measurement": "Plant response rating, Cupgrass, Woolly", "setting": "[18]; [22]", "value": 100},
      {"measurement": "Plant response rating, Cupgrass, Woolly", "setting": "[18]; [21]", "value": 80},
      {"measurement": "Plant response rating, Cupgrass, Woolly", "setting": "[18]; [23]", "value": 60},
      {"measurement": "Plant response rating (0 to 100), Cupgrass, Woolly", "setting": "[18]; [24]", "value": 100},
      {"measurement": "Plant response rating, Cupgrass, Woolly", "setting": "[18]; [25]", "value": 100},
      {"measurement": "Plant response rating, Nutsedge", "setting": "[19]; [22]", "value": 0},
      {"measurement": "Plant response rating, Nutsedge", "setting": "[19]; [21]", "value": 0},
      {"measurement": "Plant response rating, Nutsedge", "setting": "[19]; [23]", "value": 0},
      {"measurement": "Plant response rating (0 to 100), Nutsedge", "setting": "[19]; [24]", "value": 40},
      {"measurement": "Plant response rating, Nutsedge", "setting": "[19]; [25]", "value": 0},
      {"measurement": "Plant response rating, Sunflower", "setting": "[20]", "value": 40}
    ]}
  ]
}
